Reference: patent US20250199015A1, “CYCLIN-DEPENDENT KINASE 2 INHIBITORS FOR MEDICAL TREATMENT” (INCYCLIX BIO, LLC, priority 2022, published 2025)
“And” between values parts separate entries of the source, which are not always exact repeats. Equal entries are not always repeated. Structures can show the parent of a compound that is named as a salt. Marks after values point to notes of the source that are not given here.

Assays:
[1] = Dynamic Vapor Sorption (DVS); format: physicochemical; details: for DVS uptake, first sorption cycle / DVS uptake, second sorption cycle: 25° C., to 90% RH
Procedure: Approximately 10-20 mg of sample was placed into a mesh vapor sorption balance pan and loaded into a DVS Advantage dynamic vapor sorption balance by Surface Measurement Systems. The sample was subjected to a ramping profile from 40-90% relative humidity (RH) at 10% increments, maintaining the sample at each step until a stable weight had been achieved (dm/dt 0.004%, minimum step length 30 minutes, maximum step length 500 minutes) at 25° C. After completion of the sorption cycle, the sample was dried using the same procedure to 0% RH and then a second sorption cycle back to 40% RH. Two cycles were performed. The weight change during the sorption/desorption cycles were plotted, allowing for the hygroscopic nature of the sample to be determined. XRPD analysis was then carried out on any solid retained.

[2] = 7-day indicative stability (XRPD, HPLC purity); format: physicochemical; details: for change in form after 7 days / purity change after 7 days: ambient
Procedure: The stability of HCl Pattern 1 was determined using the following procedure. HCl Pattern 1 (30 mg) was weighed into 3×2 mL glass vials. The three vials were then stored under the following conditions for 7-days: • Ambient temperature, humidity and light (open vial); • 40° C./75% RH (open vial); • 80° C. (closed vial).
After 7 days, each sample was analyzed by: XRPD to assess form changes and HPLC to determine the purity of the samples.
After 7 days at each storage condition, the solids were analyzed by XRPD to assess any changes in solid form and by HPLC to determine purity.

[3] = Thermodynamic solubility in pH 1, 4.5 and 6.8 buffers; format: physicochemical
Procedure: The thermodynamic solubility of HCl Pattern 1 was determined in duplicate according to the following procedure. HCl Pattern 1 (20 mg) was weighed into 6×2 mL glass vials. Then, 1000 μL of pH 1 hydrochloride, pH 4.5 acetate and pH 6.8 phosphate buffers were added to individual vials in 100 μL aliquots to give white slurries at each pH value. […] The pH was re-recorded and adjusted where necessary. The samples were isolated by centrifuge filtration. […] The concentrations of the saturated solutions were determined by HPLC.
Buffer systems were added in 250 μL aliquots up to a total volume of 1 mL. The pH of each slurry was recorded and adjustments were made to the pH 1 system. No initial adjustment was made to the pH 4.5 or 6.8 system. An aliquot of the slurry was analyzed by XRPD. […] The pH was checked and adjusted where required. The slurries were filtered by centrifugation. The solids were isolated and analyzed by XRPD. The solutions were analyzed by HPLC to determine concentration.

[4] = Solvate formation or form change in ethanol (thermal cycling); format: physicochemical; details: three days, 40° C./5° C.
Procedure: HCl Pattern 1 was stirred in ethanol to assess any solvation or form change in the solvent system. The following procedure was carried out. HCl Pattern 1 (20 mg) was suspended in 1 mL of ethanol. The suspension was thermally cycled for three days according to the following cycle: • Heat to 40° C. at a rate of 0.1° C./min; • Hold at 40° C. for one hour; • Cool to 5° C. at a rate of 0.1° C./min; • Hold at 5° C. for one hour.
After three days, observations were recorded, and solids were isolated by centrifugation. Wet solids were analyzed by XRPD.

[5] = Salt screen storage at 40° C./75% RH, XRPD form; format: physicochemical; details: after storage at 40° C./75% RH, scale up from ethyl acetate
Procedure: XRPD analysis was carried out on any isolated solids or gums as described in Example 10 below. The XRPD plate, and the isolated solids, were dried at 40° C. for ca. 24 hours and re-analyzed by XRPD. The XRPD plate was further dried at 40° C./75% RH for ca. 24 hours and XRPD analysis was repeated.
After three days, observations were recorded and solids were isolated by centrifugation. The wet solids were analyzed by XRPD. Solids were dried at 40° C. under vacuum for 72 hours and re-analyzed by XRPD. Solids were dried at 40° C./75% RH for 18 hours and re-analyzed by XRPD.

[6] = Disproportionation study in water; format: physicochemical
Procedure: A study disproportionation was carried out using the following procedure. […] The pH was recorded, and the suspension was stirred for ca. 24 hours at 25° C. After 24 hours the pH was recorded, and the slurry was filtered by centrifugation. The solids were isolated and analyzed by XRPD. The solution was isolated and analyzed by HPLC to determine concentration.

[7] = Hydration study in ethanol:water mixtures; format: physicochemical; details: 24 hours; for XRPD: solids from slurry
Procedure: A hydration study was carried out on the material according to the following procedure. […] Ethanol: water solutions (Table 77) were added in 250 μL aliquots to a total volume of 1 mL. The slurries were stirred at 25° C. for 24 hours. After 24 hours the slurries were filtered by centrifugation. The solids were isolated and analyzed by XRPD. The solution was isolated and analyzed by HPLC to determine concentration.

[8] = Thermodynamic solubility in pH 1, 4.5 and 6.8 buffers; format: physicochemical; details: for Solubility: 25° C., 24 hours
[9] = tested on: caspase 3/7 in Hs68 cells; assay: CaspaseGlo-3/7 in normal fibroblasts; format: cell-based; details: 300 pM to 10 μM; 24, 48 or 72 hours
Procedure: The Hs68 Normal foreskin fibroblast cell line was grown in DMEM-high glucose/1× Glutamax/10% fetal bovine serum and was plated at 1,000 cells/well in Corning 96 well white wall/clear bottom tissue culture treated plates. […] Plates were removed from incubator at each specified timepoint and treated with CaspaseGlo-3/7 (Promega, Inc) following manufacturer specifications. Plates were then read on Biotech luminometer with 1 sec/well integration. Results were converted to Microsoft Excel and transferred to GraphPad Prism for Analysis (FIG. 5A-C).

[10] = tested on: caspase 3/7 in H526 cells; assay: CaspaseGlo-3/7 activation; format: cell-based, human
Procedure: (§1) Plates were removed from incubator and treated with CaspaseGlo-3/7 (Promega, Inc) following manufacturer specifications. Plates were then read on a Biotech luminometer with 1 sec/well integration. Results were converted to Microsoft Excel and transferred to GraphPad Prism for Analysis (FIG. 22D).
as §1, with “from the” for “from”, “incubator at each specified timepoint” for “incubator”, “on” for “on a”, “27A-C).” for “22D).”

[11] = 7 days, 40° C./75% RH (open vial)
[12] = 7 days, ambient temperature, humidity and light (open vial)
[13] = pH 6.8 (Phosphate) buffer, 25° C., 24 hours
[14] = residual solids, pH 1 (HCl) buffer, 25° C., 24 hours

In the case of `NS(=O)(=O)c1ccc(Nc2ncc3cc4n(c3n2)C2(CCCCC2)C(=O)NN4)cc1` [HCl Pattern 1], the “form post DVS by XRPD” value [1] is reported as “no observable form change had occurred”, the “hygroscopicity (DVS)” value [1] is reported as “moderately hygroscopic” and the “DVS uptake, first sorption cycle” value [1] is reported as 5.15%. The “DVS uptake, second sorption cycle” value [1] was 5.10%, the “HPLC Purity” value [2, 11] was 97.98 % w/w and the Observation [2, 11] was “White Solid”. The XRPD [2, 11] was “HCl Pattern 1”, the “HPLC Purity” value ([2]; 7 days, 80° C. (closed vial)) was 96.97 % w/w and the Observation ([2]; 7 days, 80° C. (closed vial)) was “White Solid”. The XRPD ([2]; 7 days, 80° C. (closed vial)) was “HCl Pattern 1”, the “HPLC Purity” value [2, 12] was 98.02 % w/w and the Observation [2, 12] was “Yellow Solid”. The XRPD [2, 12] was “HCl Pattern 1”, the “change in form after 7 days” value ([2]; 40° C./75% RH, 80° C.) was “no observable change in form” and the “purity change after 7 days” value ([2]; 40° C./75% RH, 80° C.) was “decrease in purity was noted for all samples”. The Solubility ([3]; pH 1 (HCl) buffer, 25° C., 24 hours) was 2.7 µg/mL, the solubility at 24 h ([3]; pH 1 hydrochloride buffer, 25 °C, pH 1, simulated gastric fluid, thermodynamic from solid, pH 1 (HCl) buffer, 24 hours) was 3.8 µg/mL and the Solubility ([3]; pH 4.5 (Acetate) buffer, 25° C., 24 hours) was “<LOQ”. The “residual solids by XRPD” value ([3]; pH 4.5, 25° C., 24 hours) was “formation of free base”, the Solubility [3, 13] was “<LOQ” and the “residual solids by XRPD” value ([3]; pH 6.8, 25° C., 24 hours) was “formation of free base”. The XRPD [3, 14] was 1 and the “form after thermal cycling in ethanol” value [4] was “produced HCl Pattern 2”.
For `NS(=O)(=O)c1ccc(Nc2ncc3cc4n(c3n2)C2(CCCCC2)C(=O)NN4)cc1.O=P(O)(O)O` [phosphate Pattern 7], the XRPD [5] was “Pattern 7*”, the “form post DVS by XRPD” value [1] was “no observable form change had occurred” and the “hygroscopicity (DVS)” value [1] was “moderately hygroscopic”. The “DVS uptake, first sorption cycle” value [1] was 4.76%, the “DVS uptake, second sorption cycle” value [1] was 5.18% and the “DVS Moisture Uptake at 80% RH” value ([1]; first sorption cycle) was 4.76 wt. %. The XRPD ([1]; post DVS) was “Phosphate Pattern 7*”, the “DVS Moisture Uptake at 80% RH” value ([1]; second sorption cycle) was 5.18 wt. % and the “HPLC Purity” value ([2]; 7 Day Stability, 40° C./75% RH) was 89.63 % area. For the same molecule, the “HPLC Purity” value ([2]; 7 Day Stability, 80° C.) was 98.08 % area, the “HPLC Purity” value ([2]; 7 Day Stability, Ambient, Light) was 97.90 % area and the “HPLC Purity” value [2, 11] was 89.63 % w/w. The Observation [2, 11] was “Faint Pink Solid”, the XRPD [2, 11] was “Phosphate Pattern 7*” and the “HPLC Purity” value ([2]; 7 days, 80° C. (closed vial)) was 98.08 % w/w. The Observation ([2]; 7 days, 80° C. (closed vial)) was “White Solid”, the XRPD ([2]; 7 days, 80° C. (closed vial)) was “Phosphate Pattern 7*” and the “HPLC Purity” value [2, 12] was 97.87 % w/w. For the same molecule, the Observation [2, 12] was “Faint Yellow Solid”, the XRPD [2, 12] was “Phosphate Pattern 7*” and the “change in form after 7 days” value ([2]; 40° C./75% RH, 80° C.) was “no observable change in form”. The “purity change after 7 days” value ([2]; 40° C./75% RH, 80° C.) was “significant decrease in purity”, the XRPD ([3]; 24 h Solubility at 37° C., pH 4.5, residual solids) was “Free Base Pattern 1” and the XRPD ([3]; 24 h Solubility at 37° C., pH 6.8, residual solids) was “Free Base Pattern 1”. The “thermodynamic solubility in three buffer systems” value ([3]; pH 1, 4.5, 6.8) was “low aqueous solubility”, the “residual solids by XRPD” value ([3]; pH 1, 25° C., 24 hours) was “mixture of HCl Pattern 1 and free base” and the “24 h Solubility at 37° C., Concentration” value ([3]; pH 4.5) was 5.2 µg/mL. For the same molecule, the “residual solids by XRPD” value ([3]; pH 4.5, 25° C., 24 hours) was “dissociation to free base”, the “24 h Solubility at 37° C., Concentration” value ([3]; pH 6.8) was 4.2 µg/mL and the Solubility [3, 13] was 4.2 µg/mL. The “residual solids by XRPD” value ([3]; pH 6.8, 25° C., 24 hours) was “dissociation to free base”, the XRPD [3, 14] was “HCl Pattern 1” and the XRPD ([3]; residual solids, pH 4.5 (Acetate) buffer, 25° C., 24 hours) was “Free base”. For the same molecule, the XRPD ([3]; residual solids, pH 6.8 (Phosphate) buffer, 25° C., 24 hours) was “Free base”, the “form after stirring in water” value ([6]; 25° C., ca. 24 hours) was “indicative of disproportionation” and the XRPD ([6]; slurry at 25° C. in water, 24 hours) was “Free Base Pattern 10”. The “form after stirring in ethanol:water mixtures” value ([7]; 25° C.) was “disproportionation of the salt to free base material”, the Solubility ([7]; Ethanol:Water (63.6:36.4 % v/v), Calc Aw 0.745, 25° C.) was 987.8 µg/mL and the Solubility ([7]; Ethanol:Water (92.9:7.1 % v/v), Calc Aw 0.507, 25° C.) was 1664.8 µg/mL. The Solubility ([7]; Ethanol:Water (98.4:1.6 % v/v), Calc Aw 0.257, 25° C.) was 1217 µg/mL, the XRPD ([7]; Ethanol:Water (63.6:36.4), Aw 0.745, 25° C.) was “Free Base Pattern 2” and the XRPD ([7]; Ethanol:Water (92.9:7.1), Aw 0.507, 25° C.) was “Free Base Pattern 3”. For the same molecule, the XRPD ([7]; Ethanol:Water (98.4:1.6), Aw 0.257, 25° C.) was “Free Base Pattern 3”, the XRPD ([8]; 24 h Solubility at 37° C., pH 1.2, residual solids) was “HCl Pattern 1” and the Solubility ([8]; pH 1 (HCl) buffer) was 3.8 µg/mL and 2.7 µg/mL. For the same molecule, the Solubility ([8]; pH 4.5 (Acetate) buffer) was 5.8 µg/mL and 5.2 µg/mL.
With `CN[C@@H]1C[C@H]2O[C@@](C)([C@@H]1OC)n1c3ccccc3c3c4c(c5c6ccccc6n2c5c31)C(=O)NC4` [staurosporine] the “caspase 3/7 activation” value [9] was “substantial increase”, the “caspase 3/7 activation” value ([10]; 24 hours) was “robust caspase 3/7 activation” and the IC50 ([10]; Homo sapiens, NCI-H526, 72 hours) was 6 nM.
